Results on 16 compounds are retold here after ChEMBL document CHEMBL3046720, “Molecular properties of fatty acids related to PPAR binding and metabolic diseases” (Med Chem Res, 2013).

Assay [1] deals with T1, Peroxisome proliferator-activated receptor delta (Homo sapiens, UniProt Q03181).
T1 sequence (Q03181 whole entry): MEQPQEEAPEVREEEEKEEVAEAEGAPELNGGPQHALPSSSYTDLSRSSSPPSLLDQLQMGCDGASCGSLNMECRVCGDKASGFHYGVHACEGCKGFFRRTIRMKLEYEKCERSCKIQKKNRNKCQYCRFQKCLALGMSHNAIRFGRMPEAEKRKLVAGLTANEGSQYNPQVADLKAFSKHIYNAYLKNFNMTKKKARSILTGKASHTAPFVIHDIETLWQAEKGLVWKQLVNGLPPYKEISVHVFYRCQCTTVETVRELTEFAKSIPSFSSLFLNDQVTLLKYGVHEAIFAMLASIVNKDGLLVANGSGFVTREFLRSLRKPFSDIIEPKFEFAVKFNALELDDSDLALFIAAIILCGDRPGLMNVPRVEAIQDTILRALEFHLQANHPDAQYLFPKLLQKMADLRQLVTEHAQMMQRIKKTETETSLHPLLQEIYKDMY
Nature of the assay: Displacement of [3H]GW2433 from Homo sapiens (human) PPARdelta receptor by scintillation proximity assay. (In general: In a radioligand displacement assay an active substance lowers the binding of a labelled ligand.)

The target in assay [2] is T2, Peroxisome proliferator-activated receptor alpha (Homo sapiens, UniProt Q07869).
T2 sequence (Q07869 whole entry): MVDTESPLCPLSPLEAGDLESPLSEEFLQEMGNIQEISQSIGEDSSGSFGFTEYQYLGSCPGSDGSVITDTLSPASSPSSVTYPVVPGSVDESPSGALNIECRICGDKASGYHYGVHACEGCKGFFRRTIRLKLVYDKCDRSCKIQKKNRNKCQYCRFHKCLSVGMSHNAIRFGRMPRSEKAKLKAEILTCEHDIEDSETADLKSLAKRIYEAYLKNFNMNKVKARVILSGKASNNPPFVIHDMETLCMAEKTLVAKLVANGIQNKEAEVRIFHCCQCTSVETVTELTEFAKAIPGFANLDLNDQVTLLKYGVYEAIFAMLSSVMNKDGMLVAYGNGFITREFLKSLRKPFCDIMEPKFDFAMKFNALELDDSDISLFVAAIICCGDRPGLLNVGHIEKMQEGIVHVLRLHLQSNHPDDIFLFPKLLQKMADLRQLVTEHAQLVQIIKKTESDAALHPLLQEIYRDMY
Nature of the assay: Displacement of [3H]GW2331 from Homo sapiens (human) PPARalpha receptor by scintillation proximity assay.

Assay [3] addresses T3, Peroxisome proliferator-activated receptor gamma (Homo sapiens, UniProt P37231).
T3 sequence (P37231 whole entry): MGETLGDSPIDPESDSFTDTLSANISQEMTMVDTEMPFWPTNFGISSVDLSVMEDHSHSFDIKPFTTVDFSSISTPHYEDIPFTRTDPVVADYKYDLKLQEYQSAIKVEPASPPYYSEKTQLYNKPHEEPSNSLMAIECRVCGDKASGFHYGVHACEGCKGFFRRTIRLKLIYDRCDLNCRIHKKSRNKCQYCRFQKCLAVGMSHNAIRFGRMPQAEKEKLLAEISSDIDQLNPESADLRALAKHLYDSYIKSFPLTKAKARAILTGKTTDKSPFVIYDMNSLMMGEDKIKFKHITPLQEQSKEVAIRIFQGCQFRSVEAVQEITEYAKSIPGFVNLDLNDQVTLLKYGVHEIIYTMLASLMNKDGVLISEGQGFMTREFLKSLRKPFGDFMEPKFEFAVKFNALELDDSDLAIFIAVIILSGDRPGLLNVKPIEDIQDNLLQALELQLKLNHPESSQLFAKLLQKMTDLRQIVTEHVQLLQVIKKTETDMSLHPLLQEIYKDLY
As to the kind of experiment: Displacement of [3H]BRL49653 from Homo sapiens (human) PPARgamma receptor by scintillation proximity assay.

In the case of `CCCCCCCCCCCCCCCCCCCC(=O)O` [ARACHIDIC ACID], the IC50 in assay [1] and in assay [2] was more than 30 µM in each case.

For `CCCCC/C=C\C/C=C\C/C=C\C/C=C\CCCC(=O)O` [ARACHIDONIC ACID], the IC50 was determined as 3.1 µM in assay [1] and 1.6 µM in assay [3].

Regarding `CCCCCCCCCCCCCCCCCCCCCC(=O)O` [BEHENIC ACID], the concentration for half-maximal inhibition (IC50) in assay [1] and in assay [2] was more than 30 µM each time.

For `CCCCCCCCCC(=O)O` [DECANOIC ACID], the IC50 in assay [1] was more than 30 µM; in assay [2], more than 30 µM; in assay [3], 30 µM.

Take `CCCCC/C=C\C/C=C\C/C=C\CCCCCCC(=O)O` [DIHOMO-GAMMA-LINOLENIC ACID]: the half-inhibitory concentration (IC50) was determined as 4.3 µM in assay [1] and 2.4 µM in assay [3].

As to `CCCCCCCCCCCC(=O)O` [DODECANOATE], the half-inhibitory concentration (IC50) in assay [1] and in assay [2] was more than 30 µM each time.

For `CCCCCCCC/C=C\CCCCCCCCCCCC(=O)O` [ERUCIC ACID], the 50% inhibitory concentration (IC50) in assay [1] and in assay [2] was more than 30 µM throughout.

`CCCCC/C=C\C/C=C\C/C=C\CCCCC(=O)O` [GAMOLENIC ACID]: the IC50 in assay [1] is 0.75 µM.

Regarding `CC/C=C\C/C=C\C/C=C\C/C=C\C/C=C\CCCC(=O)O` [ICOSAPENT], the results for the IC50 in assay [1] and in assay [3] were 4 µM and 1.6 µM, respectively.

For `CCCCC/C=C\C/C=C\CCCCCCCC(=O)O` [LINOLEIC ACID], the values for the IC50 in assay [1] and in assay [3] were 10 µM and 6.2 µM, respectively.

Compound `CC/C=C\C/C=C\C/C=C\CCCCCCCC(=O)O` [LINOLENIC ACID] returned an IC50 in assay [1] of 16 µM.

`CCCCCCCCCCCCCC(=O)O` [MYRISTIC ACID]: the IC50 was 5.4 µM in assay [2] and 21 µM in assay [3].

Consider `CCCCCCCC/C=C\CCCCCCCC(=O)O` [OLEIC ACID], for which the IC50 in assay [1] turned out to be 5.3 µM; in assay [3], 4.1 µM.

For `CCCCCCCCCCCCCCCC(=O)O` [PALMITIC ACID], in assay [2], the IC50 was 1.5 µM.

In the case of `CCCCCC/C=C\CCCCCCCC(=O)O` [PALMITOLEIC ACID], the figures for the IC50 in assay [1] and in assay [3] were 9.6 µM and 6.4 µM, respectively.

Turning to `CCCCCCCCCCCCCCCCCC(=O)O` [STEARIC ACID], in assay [2], the IC50 was determined as 1.1 µM.

A word on the IC50: it is the point on the concentration scale where inhibition reaches its midpoint.
